Reference: patent US8962843B2, “1,3,4-oxadiazole and 1,3,4-thiadiazole beta-lactamase inhibitors” (priority 2012, dated 2015)
Counter-ions that a name gives are not always drawn.

Columns and labels:
[1] = tested on: bacterial strains that express the class D cephalosporinase OXA-15; assay: Standard BLI potentiation MIC / synergy MIC assays, strains expressing OXA-15; assay type: cell-based, E. coli; conditions: in combination with a β-lactam; comparator Avibactam (CCC)
In short: (§1)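 Broth microdilution in cation-adjusted Mueller Hinton broth per CLSI M07-A9, ~10^5 CFU/mL, 18-20 h at 37 °C with aeration; engineered E. coli carrying β-lactamase plasmids kept on 25 μg/mL tetracycline. β-lactam MIC measured in 2-fold dilutions (128-0.13 μg/mL) with BLI fixed at 4 μg/mL; sMIC titrates BLI against a fixed β-lactam concentration. MIC = lowest concentration without visible turbidity.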

[2] = tested on: bacterial strains that express KPC β-lactamases; assay: Standard BLI potentiation MIC / synergy MIC assays, strains expressing KPC β-lactamases; assay type: cell-based; conditions: in combination with a β-lactam; comparator Avibactam
In short: as §1

Compound	activity against bacterial strains that express the class D cephalosporinase OXA-15, compared with Avibactam [1]	activity and/or spectrum of activity against bacterial strains that express KPC β-lactamases, compared with Avibactam [2]
N=C(N)NCCc1nnc([C@@H]2CC[C@@H]3CN2C(=O)N3OS(=O)(=O)O)s1 [Compound 794, (2S,5R)-2-(5-(2-guanidinoethyl)-1,3,4-thiadiazol-2-yl)-7-oxo-1,6-diazabicyclo[3.2.1]octan-6-yl hydrogen sulfate]	more active than Avibactam	more active than Avibactam for at least one, bacterial strain that expresses KPC β-lactamase and/or show a better spectrum of activity
N=C(N)NCCc1nnc([C@@H]2CC[C@@H]3CN2C(=O)N3OS(=O)(=O)O)o1 [Compound 705, (2S,5R)-2-(5-(2-guanidinoethyl)-1,3,4-oxadiazol-2-yl)-7-oxo-1,6-diazabicyclo[3.2.1]octan-6-yl hydrogen sulfate]	more active than Avibactam	more active than Avibactam for at least one, bacterial strain that expresses KPC β-lactamase and/or show a better spectrum of activity
NC(=O)c1nnc([C@@H]2CC[C@@H]3CN2C(=O)N3OS(=O)(=O)O)o1 [Compound 706, (2S,5R)-2-(5-carbamoyl-1,3,4-oxadiazol-2-yl)-7-oxo-1,6-diaza-bicyclo[3.2.1]octan-6-yl hydrogen sulfate]	more active than Avibactam	more active than Avibactam for at least one, bacterial strain that expresses KPC β-lactamase and/or show a better spectrum of activity
N=C(N)N1CC(Cc2nnc([C@@H]3CC[C@@H]4CN3C(=O)N4OS(=O)(=O)O)o2)C1 [Compound 741, (2S,5R)-2-(5-((1-carbamimidoylazetidin-3-yl)methyl)-1,3,4-oxadiazol-2-yl)-7-oxo-1,6-diazabicyclo[3.2.1]octan-6-yl hydrogen sulfate]	more active than Avibactam	more active than Avibactam for at least one, bacterial strain that expresses KPC β-lactamase and/or show a better spectrum of activity
N[C@H]1CC[C@@H](c2nnc([C@@H]3CC[C@@H]4CN3C(=O)N4OS(=O)(=O)O)o2)C1 [Compound 768, (2S,5R)-2-(5-((1R,3S)-3-aminocyclopentyl)-1,3,4-oxadiazol-2-yl)-7-oxo-1,6-diazabicyclo[3.2.1]octan-6-yl hydrogen sulfate]	more active than Avibactam	more active than Avibactam for at least one, bacterial strain that expresses KPC β-lactamase and/or show a better spectrum of activity
N=C(N)NC[C@H](O)c1nnc([C@@H]2CC[C@@H]3CN2C(=O)N3OS(=O)(=O)O)o1 [Compound 732, (2S,5R)-2-(5-((S)-2-guanidino-1-hydroxyethyl)-1,3,4-oxadiazol-2-yl)-7-oxo-1,6-diazabicyclo[3.2.1]octan-6-yl hydrogen sulfate]	more active than Avibactam	more active than Avibactam for at least one, bacterial strain that expresses KPC β-lactamase and/or show a better spectrum of activity
N[C@H]1C[C@H](c2nnc([C@@H]3CC[C@@H]4CN3C(=O)N4OS(=O)(=O)O)o2)C1 [Compound 727, (2S,5R)-2-(5-((1r,3S)-3-aminocyclobutyl)-1,3,4-oxadiazol-2-yl)-7-oxo-1,6-diazabicyclo[3.2.1]octan-6-yl hydrogen sulfate]	more active than Avibactam	more active than Avibactam for at least one, bacterial strain that expresses KPC β-lactamase and/or show a better spectrum of activity
O=C1N2C[C@@H](CC[C@H]2c2nnc(CCNCCO)o2)N1OS(=O)(=O)O [Compound 736, (2S,5R)-2-(5-(2-((2-hydroxyethyl)amino)ethyl)-1,3,4-oxadiazol-2-yl)-7-oxo-1,6-diazabicyclo[3.2.1]octan-6-yl hydrogen sulfate]	more active than Avibactam	more active than Avibactam for at least one, bacterial strain that expresses KPC β-lactamase and/or show a better spectrum of activity
C[n+]1ccc(-c2nnc([C@@H]3CC[C@@H]4CN3C(=O)N4OS(=O)(=O)[O-])o2)cc1 [Compound 782, (2S,5R)-2-(5-(1-methylpyridin-1-ium-4-yl)-1,3,4-oxadiazol-2-yl)-7-oxo-1,6-diazabicyclo[3.2.1]octan-6-yl sulfate]	more active than Avibactam	more active than Avibactam for at least one, bacterial strain that expresses KPC β-lactamase and/or show a better spectrum of activity
